From US7256207B2, “Inhibitors of cathepsin S” (IRM LLC, priority 2003, dated 2007)

Legend:
Type in all cases: biochemical
[1] = molecular target: Cathepsin S (Homo sapiens, UniProt P25774); experiment: Cathepsin S inhibition assay, fluorogenic peptide substrate; conditions: Cathepsin S inhibition constant; pH5.5, 20 minutes preincubation at room temperature; read-out: Ki Cat. S
Experimental: (§1) The optimal substrate for cathepsin S, acetyl-histidine-proline-valine-lysine-amino carbamoyl coumarin, was identified from screening a combinatorial library of fluorogenic peptide substrates (Harris, J. L., B. J. Backes, et al. Proc Natl Acad Sci U S A 2000, 97(14), 7754-9). Kinetic measurements are performed in a total reaction volume of 30 μl in 384-well microtiter plates. Cathepsin S, at a final concentration of 0.3-3 nM (active site), is incubated with the compounds at twelve varying concentrations in a buffer containing 100 mM NaAc (pH5.5), 1 mM EDTA, 100 mM NaCl, 0.01% Brij-35 for 20 minutes at room temperature. Control reactions in the absence of inhibitor are performed in replicates of 24. The reactions are initiated by adding the substrate, acetyl-histidine-proline-valine-lysine-amino carbamoyl coumarin, to a final concentration of 50 μM. The rate of substrate hydrolysis is measured by monitoring the increase in fluorescence at an excitation wavelength of 380 nm and an emission wavelength of 450 nm that results from cleavage of the aniline bond in the substrate by the enzyme. The apparent inhibition constants for the compounds are determined from the enzyme progress curves (Kuzmic, P., K. C. Elrod, et al. Anal Biochem 2000, 286(1), 45-50) and are then used to calculate the inhibition constants for competitive inhibitors.

[2] = molecular target: T1, Cathepsin K (Homo sapiens, UniProt P43235); experiment: Cathepsin K inhibition assay, fluorogenic peptide substrate (selectivity for Cat. S over Cat. K); conditions: ratio of cathepsin K inhibition constant to cathepsin S inhibition constant
T1 sequence (P43235 115-329): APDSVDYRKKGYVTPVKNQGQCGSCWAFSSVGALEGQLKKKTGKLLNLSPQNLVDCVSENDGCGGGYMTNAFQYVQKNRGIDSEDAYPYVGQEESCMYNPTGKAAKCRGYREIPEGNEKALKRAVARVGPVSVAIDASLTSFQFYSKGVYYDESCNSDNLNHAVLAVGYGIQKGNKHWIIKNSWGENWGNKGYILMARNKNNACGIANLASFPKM
Experimental: as §1, with “cathepsin K, acetyl-lysine-histidine-proline-lysine-amino” for “cathepsin S, acetyl-histidine-proline-valine-lysine-amino”, “Cathepsin K,” for “Cathepsin S,”, “of 3.5” for “of 0.3-3”, “substrate, acetyl-lysine-histidine-proline-lysine-amino” for “substrate, acetyl-histidine-proline-valine-lysine-amino”, “of 40” for “of 50”
(§2) Selectivity for cathepsin S in the presence of cathepsin isozymes was determined by the ratio of the cathepsin isozyme inhibition constant of a compound of the present invention to the cathepsin S inhibition constant of the same compound. Preferred compounds of the present invention selective for cathepsin S have ratios of greater than 10. More preferred compounds of the present invention selective for cathepsin S have ratios of greater than 100. Most preferred compounds of the present invention selective for cathepsin S have ratios of greater than 1000.

[3] = molecular target: Cathepsin L (Homo sapiens, UniProt P07711); experiment: Cathepsin L inhibition assay, fluorogenic peptide substrate (selectivity for Cat. S over Cat. L); conditions: ratio of cathepsin L inhibition constant to cathepsin S inhibition constant
Experimental: as §1, with “cathepsin L, acetyl-histidine-lysine-phenylalanine-lysine-amino” for “cathepsin S, acetyl-histidine-proline-valine-lysine-amino”, “Cathepsin L,” for “Cathepsin S,”, “of 0.1” for “of 0.3-3”, “substrate, acetyl-histidine-lysine-phenylalanine-lysine-amino” for “substrate, acetyl-histidine-proline-valine-lysine-amino”, “of 20” for “of 50”
as §2

[4] = molecular target: Cathepsin B (Homo sapiens, UniProt P07858); experiment: Cathepsin B inhibition assay, fluorogenic peptide substrate (selectivity for Cat. S over Cat. B); conditions: ratio of cathepsin B inhibition constant to cathepsin S inhibition constant
Experimental: as §1, with “B,” for “S,”, “1.5” for “0.3-3”, “[…].” for “50 μM.”
as §2

Sequence of Cathepsin L (P07711 114-333, species assumed): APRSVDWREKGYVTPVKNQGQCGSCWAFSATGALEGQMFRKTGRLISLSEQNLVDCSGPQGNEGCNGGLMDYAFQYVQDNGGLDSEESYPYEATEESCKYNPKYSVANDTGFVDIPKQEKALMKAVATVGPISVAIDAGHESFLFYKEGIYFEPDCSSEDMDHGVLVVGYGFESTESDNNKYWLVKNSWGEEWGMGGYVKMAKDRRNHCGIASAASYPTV
Sequence of Cathepsin S (P25774 115-331, species assumed): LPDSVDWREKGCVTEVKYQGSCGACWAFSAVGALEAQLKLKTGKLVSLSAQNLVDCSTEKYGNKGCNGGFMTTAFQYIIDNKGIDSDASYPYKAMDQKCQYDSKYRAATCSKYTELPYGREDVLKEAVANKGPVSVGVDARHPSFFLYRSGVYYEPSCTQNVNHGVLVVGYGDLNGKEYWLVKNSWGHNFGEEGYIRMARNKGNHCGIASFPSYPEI

Ki [1]	Selectivity for Cat. S over Cat. K [2]	Selectivity for Cat. S over Cat. L [3]	Selectivity for Cat. S over Cat. B [4]	SMILES
< 100 nM	− (−, <10)	++ (++, >100)	+++ (+++, >1000)	C[C@@H](CN1CC(C)(C)c2cc(F)ccc21)NC(=O)O[C@H](Cn1cnc2ccccc21)CC(C)(C)C [Example 11, 1-(S)-(Benzimidazol-1-ylmethyl-3,3-dimethyl)-butyl [2-(5-fluoro-3,3-dimethyl-2,3-dihydro-indol-1-yl)-1-(S)-methyl-ethyl]carbamate]
< 100 nM	− (−, <10)	++ (++, >100)	+++ (+++, >1000)	CC(C)(C)C[C@@H](Cn1cnc2ccccc21)OC(=O)N[C@@H](CO)CN1CCc2cc(F)ccc21 [Example 12, 1-(S)-(Benzimidazol-1-ylmethyl)-3,3-dimethyl-butyl [2-(5-fluoro-2,3-dihydro-indol-1-yl)-1-(R)-hydroxymethyl-ethyl]carbamate]
